# Laboratory results taken from patent publication US20240279230A1, “CRYSTALLINE FORMS OF A HER2 INHIBITOR” (Boehringer Ingelheim International GmbH, priority 2022, published 2024).
# “Also recorded” adds a separate entry of the source.
# Assays:
# Type in all cases: physicochemical
# [1] = Dynamic Vapor Sorption (DVS) sorption isotherms, hygroscopic behaviour; settings: for Hygroscopicity: DVS classification; for Δm (0-80%), moisture absorbed at 80% RH / Δm (0-90%), maximum water uptake: DVS, 25.0 ±1.0° C.; for Δm (0-90%), maximum water uptake: up to 90% RH; for Hysteresis: between sorption and desorption curves
# Description: The methodology for this can be as follows. The mass of the solids is monitored as the relative humidity (RH) was deliberately changed. The RH is cycled twice from 0% to 90% to 0% in 10% steps. The temperature during measurement is kept constantly at (25.0 ±1.0° C.) Each step is held until mass stability was achieved. A camera inside the instrument captured an image at the conclusion of each stage, allowing for the observation of any visual changes in the solid form during the analysis.
# [2] = Thermogravimetric Analysis (TGA); settings: 20° C./min
# Description: The methodology for this can be as follows. Solid compounds (˜5 mg) are placed in an aluminium pan and sealed. The instrument used for the analysis is a TA Instruments TGA 550. The same sample lots from DSC testing are used for TGA testing. Processing is completed using TRIOS software.
# [3] = Chemical stability of solid state forms under temperature/humidity stress, related substances by HPLC at 252 nm; parameters: Impurity I / Impurity A / Impurity B / Impurity C / Impurity D / Impurity E / Impurity F / Impurity G / Impurity H: unit not given here
# Excerpt: To do so, control samples are stored refrigerated in the presence of desiccant for the duration of the study and measured simultaneously with stressed samples by HPLC at a wavelength of 252 nm.
# [4] = Polymorphic stability of form III and form IV under stress storage, PXRD; settings: 21 days;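 note: open storage at 90 °C with 3% RH or 78% RH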
# Description: A Bruker D2 Phaser X-Ray Diffractometer (XRD, EQ-SSRD-XRD-01) can be used for characterizing the samples. Raw results are evaluated using DIFFRAC.EVA (Bruker, V5.0) software. The Kα2 contribution was stripped, and a peak search was performed using peak search parameters (width 0.302 and threshold 1.0).
# A test sample (approximately 0.3 g) is representatively subsampled into an agate-type mortar and pestle. Sample is ground for approximately one minute to achieve a fine homogenous powder. Sample is then transferred into a stainless-steel sample holder fitted with a zero-diffraction plate (ZDP). The sample holder is then levelled off with a glass slide to create a flat sample surface level with the sample holder.
# [5] = Control 1, stored refrigerated with desiccant
# [6] = Control 2, stored refrigerated with desiccant
# [7] = Control 3, stored refrigerated with desiccant
compound,measurement,setting,value
"C=CC(=O)NC1CCN(c2ncc3ncnc(Nc4ccc(Oc5ccc6c(c5)ncn6C)c(C)c4)c3n2)CC1 [Form III, N-{1-[8-({3-methyl-4-[(1-methyl-1H-1,3-benzodiazol-5-yl)oxy]phenyl}amino)-[1,3]diazino[5,4-d]pyrimidin-2-yl]piperidin-4-yl}prop-2-enamide]",Change in visual appearance during the humidity cycles,[1]; DVS camera images,No change in the visual appearance
same,Hygroscopicity,[1],slightly hygroscopic
same,Hygroscopicity,[1]; listed as form III,slightly hygroscopic
same,"Δm (0-80%), moisture absorbed at 80% RH",[1],1.2 wt %
same,"Δm (0-80%), moisture absorbed at 80% RH",[1]; listed as form III,1.2 wt %
same,"Δm (0-90%), maximum water uptake",[1],1.7 wt %
same,"Δm (0-90%), maximum water uptake",[1]; listed as form III,1.7 wt %
same,Phase change during DVS experiment,[1]; RH cycled twice 0% to 90% to 0%,no indication of irreversible phase conversion or hydrate formation; also recorded: no irreversible phase changes
same,Hysteresis,[1],no
same,Hysteresis,[1]; listed as form III,lack of hysteresis
same,TGA change in mass,[2]; Decomposition,60.862%
same,TGA onset,[2]; Decomposition,420.47 °C
same,TGA change in mass,[2]; Small mass loss event,1.129%
same,TGA end,[2]; Small mass loss event,240.02 °C
same,TGA onset,[2]; Small mass loss event,231.13 °C
same,TGA change in mass,"[2]; Small mass loss event, listed as form III",around 1%
same,Color change after stressing,"[3]; 60-90° C., 3-79% RH, up to 21 days",No color changes
same,Impurity A,"[3]; 60° C./75% RH, 21 days",0.067
same,Impurity B,"[3]; 60° C./75% RH, 21 days",0.012
same,Impurity C,"[3]; 60° C./75% RH, 21 days",0.023
same,Impurity D,"[3]; 60° C./75% RH, 21 days",0.134
same,Impurity E,"[3]; 60° C./75% RH, 21 days",0.057
same,Impurity F,"[3]; 60° C./75% RH, 21 days",0
same,Impurity G,"[3]; 60° C./75% RH, 21 days",0.019
same,Impurity H,"[3]; 60° C./75% RH, 21 days",0.140
same,Impurity I,"[3]; 60° C./75% RH, 21 days",0.014
same,Impurity A,"[3]; 70° C./62% RH, 21 days",0.064
same,Impurity B,"[3]; 70° C./62% RH, 21 days",0.012
same,Impurity C,"[3]; 70° C./62% RH, 21 days",0.024
same,Impurity D,"[3]; 70° C./62% RH, 21 days",0.119
same,Impurity E,"[3]; 70° C./62% RH, 21 days",0.059
same,Impurity F,"[3]; 70° C./62% RH, 21 days",0.006
same,Impurity G,"[3]; 70° C./62% RH, 21 days",0.019
same,Impurity H,"[3]; 70° C./62% RH, 21 days",0.139
same,Impurity I,"[3]; 70° C./62% RH, 21 days",0.015
same,Impurity A,"[3]; 75° C./41% RH, 21 days",0.066
same,Impurity B,"[3]; 75° C./41% RH, 21 days",0.011
same,Impurity C,"[3]; 75° C./41% RH, 21 days",0.025
same,Impurity D,"[3]; 75° C./41% RH, 21 days",0.118
same,Impurity E,"[3]; 75° C./41% RH, 21 days",0.062
same,Impurity F,"[3]; 75° C./41% RH, 21 days",0.009
same,Impurity G,"[3]; 75° C./41% RH, 21 days",0.019
same,Impurity H,"[3]; 75° C./41% RH, 21 days",0.136
same,Impurity I,"[3]; 75° C./41% RH, 21 days",0.010
same,Impurity A,"[3]; 75° C./79% RH, 17 days",0.066
same,Impurity B,"[3]; 75° C./79% RH, 17 days",0.012
same,Impurity C,"[3]; 75° C./79% RH, 17 days",0.031
same,Impurity D,"[3]; 75° C./79% RH, 17 days",0.106
same,Impurity E,"[3]; 75° C./79% RH, 17 days",0.074
same,Impurity F,"[3]; 75° C./79% RH, 17 days",0
same,Impurity G,"[3]; 75° C./79% RH, 17 days",0.005
same,Impurity H,"[3]; 75° C./79% RH, 17 days",0.135
same,Impurity I,"[3]; 75° C./79% RH, 17 days",0.015
same,Impurity A,"[3]; 80° C./11% RH, 21 days",0.066
same,Impurity B,"[3]; 80° C./11% RH, 21 days",0.011
same,Impurity C,"[3]; 80° C./11% RH, 21 days",0.025
same,Impurity D,"[3]; 80° C./11% RH, 21 days",0.123
same,Impurity E,"[3]; 80° C./11% RH, 21 days",0.054
same,Impurity F,"[3]; 80° C./11% RH, 21 days",0.007
same,Impurity G,"[3]; 80° C./11% RH, 21 days",0.024
same,Impurity H,"[3]; 80° C./11% RH, 21 days",0.141
same,Impurity I,"[3]; 80° C./11% RH, 21 days",0.015
same,Impurity A,"[3]; 80° C./61% RH, 17 days",0.052
same,Impurity B,"[3]; 80° C./61% RH, 17 days",0.013
same,Impurity C,"[3]; 80° C./61% RH, 17 days",0.024
same,Impurity D,"[3]; 80° C./61% RH, 17 days",0.096
same,Impurity E,"[3]; 80° C./61% RH, 17 days",0.060
same,Impurity F,"[3]; 80° C./61% RH, 17 days",0.009
same,Impurity G,"[3]; 80° C./61% RH, 17 days",0.020
same,Impurity H,"[3]; 80° C./61% RH, 17 days",0.137
same,Impurity I,"[3]; 80° C./61% RH, 17 days",0.015
same,Impurity A,"[3]; 90° C./3% RH, 21 days",0.064
same,Impurity B,"[3]; 90° C./3% RH, 21 days",0.012
same,Impurity C,"[3]; 90° C./3% RH, 21 days",0.033
same,Impurity D,"[3]; 90° C./3% RH, 21 days",0.087
same,Impurity E,"[3]; 90° C./3% RH, 21 days",0.073
same,Impurity F,"[3]; 90° C./3% RH, 21 days",0
same,Impurity G,"[3]; 90° C./3% RH, 21 days",0.007
same,Impurity H,"[3]; 90° C./3% RH, 21 days",0.140
same,Impurity I,"[3]; 90° C./3% RH, 21 days",0.016
same,Impurity A,"[3]; 90° C./41% RH, 10 days",0.066
same,Impurity B,"[3]; 90° C./41% RH, 10 days",0.013
same,Impurity C,"[3]; 90° C./41% RH, 10 days",0.025
same,Impurity D,"[3]; 90° C./41% RH, 10 days",0.109
same,Impurity E,"[3]; 90° C./41% RH, 10 days",0.060
same,Impurity F,"[3]; 90° C./41% RH, 10 days",0
same,Impurity G,"[3]; 90° C./41% RH, 10 days",0.022
same,Impurity H,"[3]; 90° C./41% RH, 10 days",0.138
same,Impurity I,"[3]; 90° C./41% RH, 10 days",0.013
same,Impurity A,"[3]; 90° C./78% RH, 21 days",0.065
same,Impurity B,"[3]; 90° C./78% RH, 21 days",0.011
same,Impurity C,"[3]; 90° C./78% RH, 21 days",0.023
same,Impurity D,"[3]; 90° C./78% RH, 21 days",0.112
same,Impurity E,"[3]; 90° C./78% RH, 21 days",0.057
same,Impurity F,"[3]; 90° C./78% RH, 21 days",0.006
same,Impurity G,"[3]; 90° C./78% RH, 21 days",0.021
same,Impurity H,"[3]; 90° C./78% RH, 21 days",0.133
same,Impurity I,"[3]; 90° C./78% RH, 21 days",0.014
same,Impurity A,[3]; [5],0.059
same,Impurity B,[3]; [5],0.012
same,Impurity C,[3]; [5],0.026
same,Impurity D,[3]; [5],0.127
same,Impurity E,[3]; [5],0.049
same,Impurity F,[3]; [5],0.008
same,Impurity G,[3]; [5],0.016
same,Impurity H,[3]; [5],0.139
same,Impurity I,[3]; [5],0.014
same,Impurity A,[3]; [6],0.051
same,Impurity B,[3]; [6],0.010
same,Impurity C,[3]; [6],0.023
same,Impurity D,[3]; [6],0.097
same,Impurity E,[3]; [6],0.057
same,Impurity F,[3]; [6],0.006
same,Impurity G,[3]; [6],0.019
same,Impurity H,[3]; [6],0.136
same,Impurity I,[3]; [6],0.016
same,Impurity A,[3]; [7],0.069
same,Impurity B,[3]; [7],0.010
same,Impurity C,[3]; [7],0.024
same,Impurity D,[3]; [7],0.143
same,Impurity E,[3]; [7],0.051
same,Impurity F,[3]; [7],0.007
same,Impurity G,[3]; [7],0.019
same,Impurity H,[3]; [7],0.139
same,Impurity I,[3]; [7],0.016
same,Increase in related substances,"[3]; accelerated stress conditions, up to 21 days at 90° C./78% RH",no significant increase in any related substance
same,Chemical stability in the solid state,[3]; up to 21 days at 90° C./78% RH,chemically very stable
same,Polymorphic stability by PXRD,[4]; open storage 90° C./3% RH,stable and conformed to form III reference standard
same,Polymorphic stability by PXRD,"[4]; open storage 90° C./3% RH, listed as form III",neither form underwent phase changes
same,Polymorphic stability by PXRD,[4]; open storage 90° C./78% RH,stable and conformed to form III reference standard
same,Polymorphic stability by PXRD,"[4]; open storage 90° C./78% RH, listed as form III",neither form underwent phase changes
